Laboratory results taken from patent publication US10000452B1, “Quinolone-based compounds, formulations, and uses thereof” (University of South Florida, priority 2016, dated 2018).
pEC50: −log10 of the molar value.

What was measured:
[1] = tested on: malarial strain TM90-C2B (mefloquine, chloroquine, atovaquone, and pyrimethamine-resistant); conditions: previous work; cited from earlier work
Pb-infected mice = experiment: in vivo efficacy scouting assay against blood stages; design: species or system P. berghei; mice; conditions: Example 2: two mice, single 50 mg/kg oral dose in PEG400 on day 1 PE
Protocol: The screening involved a single oral 50 mg/kg dose 1 day post infection (PI) and an assessment of parasitemia on days 3 PI and 6 PI (Table 6).
The screening was performed by treating two infected mice with a single 50 mg/kg oral dose of test compound suspended in PEG400 on day 1 postexposure (PE) followed by assessing parasitemia on days 3 and 6 PE.

[2] = biological target: P. berghei sporozoites expressing luciferase; conditions: previous work; read-out: liver stage activity; cited from earlier work
[3] = aqueous solubility (LC/MS- or HPLC-based assay); format: physicochemical; conditions: Example 2
Procedure, shortened: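 Aqueous solubility and log D (pH 7.4) determined by LC/MS-based assays; solubility examined at more than one pH.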

[4] = tested on: malarial strain W2 (pyrimethamine and chloroquine-resistant); experiment: in vitro antimalarial activity against multidrug resistant strain W2; format: cell-based, P. falciparum; conditions: Plasmodium falciparum, read-out: EC50 W2 (nM)
P. berghei-GFP parasites = experiment: modified Thompson test; format: in vivo, P. berghei; mice
Protocol: Mice were infected with 1×10^6 P. berghei-GFP parasites and compounds were dosed orally on days 3, 4 and 5 PI with a dose of 10 mg/kg of compound suspended or dissolved in HEC/Tween or PEG 400. Parasitemia was observed by flow cytometry on days 3, 6, 9, 13, 21, and 30 PI. Compounds with animal survival up to day 30 PI and parasitemia levels of less than 1% on day 30 PI were considered to be cures. Lastly, animals with more than 40% parasitemia levels were euthanized.
On days 3, 6, 9, 13, 21, and 30 PE, parasitemia was monitored by Giemsa-stained blood smears. Both compounds were evaluated by the reduction of parasitemia on day 6 PE and the survival up to day 30 PE.

[5] = tested on: malarial strain TM90-C2B (mefloquine, chloroquine, atovaquone, and pyrimethamine-resistant); experiment: microbe, parasite or virus in culture; format: cell-based, P. falciparum; conditions: Plasmodium falciparum, TM90, read-out: EC50 TM90-C2B (nM)
Text: Ideally, the RI of a compound should lie between 0.3 and 3.0 in order to avoid rapidly inducing resistance in the parasite. […]

CCCCc1cc2c(=O)c(Br)c(C)[nH]c2cc1OCCOc1ccccc1 [Compound 16c, 3-Bromo-6-butyl-2-methyl-7-(2-phenoxyethoxy)quinolin-4(1H)-one]
resistance index (RI) [1]: 4.69
% inhibition on day 6 PE (Pb-infected mice): 49.5%
pEC50 [2]: 8.67
fold more soluble in comparison to 6b [3]: approximately 10
EC50 [4]: 2.6 nM
day mice were sacrificed (P. berghei-GFP parasites; Example 2: 10 mg/kg oral days 3, 4, 5, controls sacrificed day 13): 13
% inhibition on day 6 PE (P. berghei-GFP parasites; Example 2: 10 mg/kg oral days 3, 4, 5 in HEC/Tween, Giemsa-stained smears): 61%
EC50 [5]: 12.2 nM
